This experiment deals with PMA-differentiated THP-1 cells. Briefly: IL-1β production in PMA-differentiated THP-1 cells stimulated with gramicidin (hTHP-1 assay containing 2% fetal bovine serum; Procedures 1 and 2). The format is cell-based, human. The settings on record: 2% fetal bovine serum. The method in brief: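 PMA-primed (20 ng/ml, 16-18 h) THP-1 cells in RPMI with 2% FBS, 50,000 cells/well, were preincubated 1 h with compound (0.0017-100 μM final, 0.37% DMSO), then stimulated 2 h with 5 μM gramicidin. Supernatant IL-1β measured by HTRF.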

Where [1] appears, read: Homo sapiens, THP-1, Table B1, numeric bounds, read-out: Average IC50 of compounds in hTHP-1 assay: hTHP-1 IC50.
Setting [2] is: Table B2, class symbols, read-out: hTHP-1 IC50.
The mark [3] stands for this setting: Table B1, class symbols, read-out: Average IC50 of compounds in hTHP-1 assay: hTHP-1 IC50.
Setting [4] is: Homo sapiens, THP-1, Table B1, class symbols, read-out: Average IC50 of compounds in hTHP-1 assay: hTHP-1 IC50.
The mark [5] stands for this setting: Table B4, class symbols, read-out: hTHP-1 IC50.
Where [6] appears, read: Table B3, hTHP-1 assay, class symbols, read-out: IC50.
[7] abbreviates: Homo sapiens, THP-1, Table B2, class symbols, read-out: hTHP-1 IC50.

Where two headings read alike, the source gives them in different places. A value given as a limit tells only on which side of the number the result lay.

In patent US20230031406A1, “COMPOUNDS AND COMPOSITIONS FOR TREATING CONDITIONS ASSOCIATED WITH NLRP ACTIVITY” (Novartis AG, priority 2018, published 2023) one finds IC50 data, which are given here for 23 molecules.

Take `Cc1c(C2(F)CC2)nc2c(c1NC(=O)N=S(N)(=O)c1sc(C(C)(C)O)cc1F)CCC2` (single isomer, unassigned) [Example 686, (S) or (R)-3-fluoro-N′-((2-(1-fluorocyclopropyl)-3-methyl-6,7-dihydro-5H-cyclopenta[b]pyridin-4-yl)carbamoyl)-5-(2-hydroxypropan-2-yl) thiophene-2-sulfonimidamide]: the IC50 (usually the concentration that inhibits the measured activity by half) (Homo sapiens, THP-1, Table B3, hTHP-1 assay, numeric values, read-out: IC50) was over 30000 nM.

`CC(C)c1ncc(F)c(C(C)C)c1NC(=O)N=S(N)(=O)c1ccc(CN(C)C)cc1` (centres unmarked) [Compound 132, 4-((dimethylamino)methyl)-N′-((5-fluoro-2,4-diisopropylpyridin-3-yl)carbamoyl)benzenesulfon-imidamide]: the IC50 under setting [1] is over 27000 nM.

Regarding `CC(C)(O)c1cc(Cl)c(S(N)(=O)=NC(=O)Nc2c3c(nc4c2CCC4)CCC3)s1` (single isomer, unassigned) [Compound 691b, (R) or (S)-3-Chloro-N′-((1,2,3,5,6,7-hexahydrodicyclopenta [b,e]pyridin-8-yl)carbamoyl)-5-(2-hydroxypropan-2-yl)thiophene-2-sulfonimidamide], under setting [2], the IC50 fell in the range of 1000 to 5000 nM.

On to `CC1CCc2c1nc1c(c2NC(=O)N=S(N)(=O)c2cc(C(C)(C)O)cs2)CCC1C` (single isomer, unassigned) [Compound 131d, (S,R,R) or (S,S,S) or (S,R,S) and (S,S,R)-N′-((3,5-dimethyl-1,2,3,5,6,7-hexa-hydrodicyclopenta[b,e]pyridin-8-yl)carbamoyl)-4-(2-hydroxypropan-2-yl)thio-phene-2-sulfonimidamide], for which the IC50 under setting [3] lay within 5000 to 30000 nM.

On to `CC(C)c1ncc(F)c(C(C)C)c1NC(=O)N=S(N)(=O)c1cc(C(C)(C)O)cs1` (single isomer, unassigned) [Compound 148a, (R) or (S)-N′-((5-fluoro-2,4-diisopropylpyridin-3-yl)carbamoyl)-4-(2-hy-droxypropan-2-yl)thiophene-2-sulfonimidamide], for which the IC50 under setting [3] was in the range of 200 to 1000 nM.

As for `CC(C)(O)c1ccc(S(N)(=O)=NC(=O)Nc2c3c(nc4c2CCC4)CCC3)s1` (single isomer, unassigned) [Compound 149a, (R) or (S)-N′-((1,2,3,5,6,7-hexahydrodicyclo-penta[b,e]pyridin-8-yl)carbamoyl)-5-(2-hydroxypropan-2-yl)thiophene-2-sulfonimidamide], under setting [4], the IC50 was in the range of 200 to 1000 nM.

Take `CC1CCc2c1nc1c(c2NC(=O)N=S(N)(=O)c2sc(C(C)(C)O)nc2CO)CCC1` (single isomer, unassigned) [Compound 168aa, (S,S) or (S,R)-4-(hydroxymethyl)-2-(2-hydroxypropan-2-yl)-N′-((3-methyl-1,2,3,5,6,7-hexahydrodicyclo-penta[b,e]pyridin-8-yl)carbamoyl)thiazole-5-sulfonimidamide]: the IC50 under setting [3] lay within 5000 to 30000 nM.

With `CC1CCc2c1nc1c(c2NC(=O)N=S(N)(=O)c2ccc(CN(C)C)cc2)CCC1` (single isomer, unassigned) [Compound 134ba, (R,R) or (R,S)-4-((dimethyl-amino)methyl)-N′-((3-methyl-1,2,3,5,6,7-hexa-hydrodicyclo-penta[b,e]pyridin-8-yl)carbamoyl)benzene-sulfonimidamide], the IC50 under setting [4] is 1000 to 5000 nM.

Take `CC1(C)CCc2c1nc1c(c2NC(=O)N=S(N)(=O)c2sc(C(O)(CO)CO)nc2CO)CCC1` (single isomer, unassigned) [Example 777, (R) or (S)-N′-((3,3-dimethyl-1,2,3,5,6,7-hexahydrodicyclopenta[b,e]pyridin-8-yl)carbamoyl)-4-(hydroxymethyl)-2-(1,2,3-trihydroxypropan-2-yl)-thiazole-5-sulfonimidamide]: under setting [5], the IC50 is 200 to 1000 nM.

For the molecule `CCn1cc(F)c(S(N)(=O)=NC(=O)Nc2c(C)c(C(F)(F)F)nc3c2CCC3)n1` (single isomer, unassigned) [Example 649, (R) or (S)-1-ethyl-4-fluoro-N′-((3-methyl-2-(trifluoromethyl)-6,7-dihydro-5H-cyclopenta[b]pyridin-4-yl)carbamoyl)-1H-pyrazole-3-sulfonimidamide], the IC50 under setting [6] was 40 to 200 nM.

On to `CC(C)(O)c1csc(S(N)(=O)=NC(=O)Nc2c3c(nc4c2CCC42CC2)CCC3)c1` (single isomer, unassigned) [Compound 114a, (R) or (S)-4-(2-hydroxy-propan-2-yl)-N′-((1′,5′,6′,7′-tetrahydro-2′H-spiro[cyclopropane-1,3′-dicyclopenta[b,e]pyridin]-8′-yl)carbamoyl)thiophene-2-sulfonimidamide], for which the IC50 under setting [3] lay in the range of 40 to 200 nM.

As to `Cc1c(-c2ccccc2)nc2c(c1NC(=O)N=S(N)(=O)c1cnc(C(C)(C)O)s1)CCC2` (centres unmarked) [Compound 143, 2-(2-hydroxypropan-2-yl)-N′-((3-methyl-2-phenyl-6,7-dihydro-5H-cyclopenta[b]pyridin-4-yl)carbamoyl)thiazole-5-sulfonimidamide], the IC50 under setting [1] was over 30000 nM.

Consider `Cc1nc2c(c(NC(=O)N=S(N)(=O)c3nn(C(F)F)cc3F)c1-c1ccccc1)CCC2` (single isomer, unassigned) [Example 727, (R) or (S)-1-(difluoromethyl)-4-fluoro-N′-((2-methyl-3-phenyl-6,7-dihydro-5H-cyclopenta[b]pyridin-4-yl)carbamoyl)-1H-pyrazole-3-sulfonimidamide], for which, under setting [6], the IC50 lay within 40 to 200 nM.

As for `NS(=O)(=NC(=O)Nc1c2c(nc(C3CC3)c1C1CC1)CCC2)c1nn(C(F)F)cc1F` (single isomer, unassigned) [Example 763, (R) or (S)-N′-((2,3-dicyclopropyl-6,7-dihydro-5H-cyclopenta[b]pyridin-4-yl)carbamoyl)-1-(difluoromethyl)-4-fluoro-1H-pyrazole-3-sulfonimidamide], the IC50 under setting [5] fell in the range of 200 to 1000 nM.

Turning to `CC1(C)CCc2c1nc1c(c2NC(=O)N=S(N)(=O)c2sc(C(C)(O)CO)cc2F)CCC1` (single isomer, unassigned) [Compound 640b, (S, R) and (R, R) or (R, S) and (S, S)-5-(1,2-Dihydroxypropan-2-yl)-N′-((3,3-dimethyl-1,2,3,5,6,7-hexahydrodicyclopenta [b,e]pyridin-8-yl)carbamoyl)-3-fluorotliophene-2-sulfonimidamide], under setting [2], the IC50 is 40 to 200 nM.

With `C[C@@H]1CCc2c1nc1c(c2NC(=O)N=S(N)(=O)c2sc(CN(C)C)cc2F)CCC1` (single isomer, unassigned) [Compound 636a, (S) or (R)-5-((Dimethylamino)methyl)-3-fluoro-N′-(((R)-3-methyl-1,2,3,5,6,7-hexahydrodicyclopenta [b,e]pyridin-8-yl)carbamoyl) thiophene-2-sulfonimidamide], the IC50 under setting [2] lay within 5000 to 30000 nM.

As for `CC(C)c1c(C2CC2)nc2c(c1NC(=O)N=S(N)(=O)c1cc(C(C)(C)O)cs1)CCC2` (single isomer, unassigned) [Compound 667b, (R) or (S)-N′-((2-cyclopropyl-3-isopropyl-6,7-dihydro-5H-cyclopenta[b]pyridin-4-yl)carbamoyl)-4-(2-hydroxypropan-2-yl)thiophene-2-sulfonimidamide], the IC50 under setting [2] is 200 to 1000 nM.

With `CC(C)(O)c1ncc(S(N)(=O)=NC(=O)Nc2c3c(nc4c2CCC4)CCC3)s1` (single isomer, unassigned) [Compound 128a, (R) or (S)-N′-((1,2,3,5,6,7-hexahydrodicyclo-penta[b,e]pyridin-8-yl)carbamoyl)-2-(2-hydroxypropan-2-yl)thiazole-5-sulfonimidamide], the half-maximal inhibitory concentration (IC50) under setting [3] fell in the range of 200 to 1000 nM.

`CC(C)n1nc(S(N)(=O)=NC(=O)Nc2c3c(nc4c2CCC4(C)C)CCC3)cc1C(C)(C)O` (centres unmarked) [Compound 615, N′-((3,3-dimethyl-1,2,3,5,6,7-hexahydrodicyclopenta[b,e]pyridin-8-yl)carbamoyl)-5-(2-hydroxypropan-2-yl)-1-isopropyl-1H-pyrazole-3-sulfonimidamide]: the IC50 under setting [7] lay within 1000 to 5000 nM.

With `CC(C)c1c(C2CC2)nc2c(c1NC(=O)N=S(N)(=O)c1cc(C(C)(C)O)cs1)CCC2` (single isomer, unassigned) [Compound 667a, (S) or (R)-N′-((2-cyclopropyl-3-isopropyl-6,7-dihydro-5H-cyclopenta[b]pyridin-4-yl)carbamoyl)-4-(2-hydroxypropan-2-yl)thiophene-2-sulfonimidamide], the IC50 under setting [2] fell in the range of 5000 to 30000 nM.

`CC(C)c1ncc(F)c(C(C)C)c1NC(=O)N=S(N)(=O)c1ccc(CN(C)C)cc1` (single isomer, unassigned) [Compound 132a, (R) or (S)-4-((dimethyl-amino)methyl)-N′-((5-fluoro-2,4-diisopropylpyridin-3-yl)carbamoyl)benzene-sulfonimidamide]: the IC50 under setting [4] lay within 5000 to 30000 nM.

For `Cc1c(C(C)C)nc2c(c1NC(=O)N=S(N)(=O)c1ccn(C(C)C)n1)CCC2` (single isomer, unassigned) [Compound 644b, (R) or (S)-1-Isopropyl-N′-((2-isopropyl-3-methyl-6,7-dihydro-5H-cyclopenta[b]pyridin-4-yl)carbamoyl)-1H-pyrazole-3-sulfonimidamide], the IC50 under setting [7] was 1000 to 5000 nM.

With `CC1CCc2c1nc1c(c2NC(=O)N=S(N)(=O)c2sc(C(C)(C)O)cc2F)CCC1` (single isomer, unassigned) [Compound 103bb, (R,S) or (R,R)-3-fluoro-5-(2-hydroxypropan-2-yl)-N′-((3-methyl-1,2,3,5,6,7-hexahydrodicyclo-penta[b,e]pyridin-8-yl)carbamoyl)thiophene-2-sulfonimidamide], the IC50 under setting [3] is 200 to 1000 nM.
